Several values for one entry are separate records, joined by “and”; a condition that tells them apart may be missing. Equal values may be shown once. Read-outs that look alike come from different tables or passages of the source.
Tests used:
endogenous canine ABCB1 [1] = target: T1, endogenous canine ABCB1 (Canis lupus familiaris, UniProt C0KKU9); test: Transepithelial transport, parental MDCK-II cells; format: in vitro ADME; conditions: dog, pH 7.4, repotrectinib 5 µM, no inhibitor, read-out: efflux transport ratio r
T1 construct: the low-level endogenous canine ABCB1 present in MDCK-II cells; host or cells: parental MDCK-II cells (canine kidney)
Text: (§1) Polarized Madin-Darby Canine Kidney (MDCK-II) cells (ECACC 00062107) stably transduced with either human (h) ABCB1, hABCG2 or mouse (m) Abcg2 cDNA were generated in our institute between 1995–2005. The proper identity and functionality, such as highly characteristic growth and drug transporter properties, including inhibitor sensitivity, were regularly checked in these epithelial cells. Mycoplasma routinely tested negative in these cells. The passage number was 10–15 when used in the transport experiments.
(§2) Transepithelial transport experiments were performed as previously described with 12-well plates (Transwell 3414, Corning Inc., Kennebunk, ME, USA) containing microporous polycarbonate membrane filters (3.0 µm pore size, 12 mm diameter). […]
(§3) After pre-incubation with 5 µM zosuquidar (ABCB1 inhibitor) and/or 5 µM Ko143 (ABCG2/Abcg2 inhibitor) in both compartments (when appropriate) for 1 h, the transport phase was initiated (t = 0) by replacing the medium in apical and basolateral compartments with fresh DMEM with 10% FBS and the appropriate inhibitor(s), and repotrectinib at 5 µM in the donor compartment. […] The active transport ratio r, calculated by dividing the amount of apically directed drug transport by basolaterally directed drug translocation after 8 h, was used to assess active transport of repotrectinib.

endogenous canine ABCB1 [2] = test system: T2, endogenous canine ABCB1; test: Transepithelial transport, parental MDCK-II cells; format: in vitro ADME; conditions: dog, pH 7.4, with zosuquidar 5 µM, 5 µM, + zosuquidar 5 µM, read-out: efflux transport ratio r
T2 construct: the low-level endogenous canine ABCB1 present in MDCK-II cells; host or cells: parental MDCK-II cells (canine kidney)
Text: as §1, §2, §3

[3] = 4-h oral plasma pharmacokinetics and tissue distribution, male wild-type and Oatp1a/1b−/− mice; format: in vivo; conditions: 10 mg/kg oral; for Tmax: Table S2, median (range); for Fold change Cliver / Fold change SIC (% of dose) / Fold change ratio (SIC (%)-to-plasma) / Fold change ratio (brain-to-plasma) / Fold change ratio (liver-to-plasma) / Fold change ratio (testis-to-plasma) / Fold increase Cbrain / Fold increase Ctestis / Fold increase AUC0-4h: vs wild-type; for Kp at 4 h / concentration at 4 h / Cmax / AUC(0-t): male, po; for AUC(0-t): read-out: AUC0-4h
Text: Mice with similar average ages (and body weights) were randomly allocated in experimental groups as far as possible. Mice were maintained in a temperature-controlled and specific pathogen-free environment with a 12-h light and 12-h dark cycle and they received a standard diet (Transbreed, SDS Diets, Technilab-BMI, Someren, The Netherlands) and acidified water ad libitum. […] Given the objective main readout (repotrectinib plasma and tissue concentrations as measured by LC-MS/MS), no blinding method was applied.
Repotrectinib was dissolved in dimethyl sulfoxide (DMSO) at a concentration of 50 mg/mL. This stock solution was first diluted 3-fold with ethanol/polysorbate 80 (1/1; v/v), followed by further dilution with a 10 mM hydrochloric acid solution, yielding a dosing solution of 1 mg/mL, freshly prepared on the day of experiment. Final concentrations of the solvents in the administration solution were: 2%, 2%, 2%, and 94% (all v/v) for DMSO, ethanol, polysorbate 80, and 10 mM hydrochloric acid solution, respectively.
To minimize variation in absorption upon oral administration, mice were fasted for 2–3 h before repotrectinib (10 mg/kg body weight) was administered by gavage into the stomach at 10 µL/g body weight, with a blunt-ended needle. Tail vein serial blood samples were collected at 0.125, 0.25, 0.5, 1, 2 and 4 h using heparinized capillary tubes (Sarstedt, Nümbrecht, Germany) for the 8-h experiments. For the 4- and 2-h experiments, blood samplings were performed from the tail vein with the same schedule, but terminated at 2 and 1 h, respectively. Eight, four, or two hours after oral administration, mice were deeply anesthetized with 2–3% isoflurane, followed by cardiac puncture to collect blood in Eppendorf tubes containing heparin as an anticoagulant. Brain, liver, spleen, kidney, lung, small intestine, and testis were rapidly collected after sacrificing the mice by cervical dislocation. The small intestinal contents (SIC) were separated from small intestinal tissue (SI), which was flushed and rinsed with cold saline to remove any residual feces. Brain, liver, spleen, kidney, lung, SI, SIC, and testis were homogenized with 1, 3, 1, 2, 1, 3, 2, and 1 mL of 2% BSA (w/v), respectively. Plasma fraction was isolated from blood by centrifugation at 9000× g for 6 min at 4 °C. All samples were stored at −30 °C until analysis.
A sensitive and specific liquid chromatography-tandem mass spectrometry method using protein precipitation pre-treatment was adopted to quantify the concentration of repotrectinib in DMEM medium, plasma samples and tissue homogenates.
A non-compartmental model using the PKSolver add-in program for Microsoft Excel was adopted to calculate the pharmacokinetic parameters of repotrectinib. Oral availability was assessed by the plasma area under the curve (AUC), calculated using repotrectinib plasma concentration-time curves with the linear trapezoidal rule without extrapolating the infinity. Statistical testing was performed in Graphpad Prism7 (Graphpad Software, La Jolla, CA, USA). All data are presented as geometric means ± SD. Heteroscedastic data were log-transformed before applying statistical analysis. When differences between two groups were compared, the two-sided unpaired Student’s t test was used. One-way analysis of variance (ANOVA) was applied when multiple groups were compared, and the Bonferroni post hoc correction was used to accommodate multiple testing. Differences were considered statistically significant when P < 0.05.

[4] = Table S2, male Oatp1a/1b−/− mice
[5] = FVB, mouse, plasma, 10 mg/kg, Table S2, male Oatp1a/1b−/− mice
[6] = FVB, mouse, plasma, 10 mg/kg, Table S2, male wild-type mice

T1 sequence (C0KKU9 1-1281): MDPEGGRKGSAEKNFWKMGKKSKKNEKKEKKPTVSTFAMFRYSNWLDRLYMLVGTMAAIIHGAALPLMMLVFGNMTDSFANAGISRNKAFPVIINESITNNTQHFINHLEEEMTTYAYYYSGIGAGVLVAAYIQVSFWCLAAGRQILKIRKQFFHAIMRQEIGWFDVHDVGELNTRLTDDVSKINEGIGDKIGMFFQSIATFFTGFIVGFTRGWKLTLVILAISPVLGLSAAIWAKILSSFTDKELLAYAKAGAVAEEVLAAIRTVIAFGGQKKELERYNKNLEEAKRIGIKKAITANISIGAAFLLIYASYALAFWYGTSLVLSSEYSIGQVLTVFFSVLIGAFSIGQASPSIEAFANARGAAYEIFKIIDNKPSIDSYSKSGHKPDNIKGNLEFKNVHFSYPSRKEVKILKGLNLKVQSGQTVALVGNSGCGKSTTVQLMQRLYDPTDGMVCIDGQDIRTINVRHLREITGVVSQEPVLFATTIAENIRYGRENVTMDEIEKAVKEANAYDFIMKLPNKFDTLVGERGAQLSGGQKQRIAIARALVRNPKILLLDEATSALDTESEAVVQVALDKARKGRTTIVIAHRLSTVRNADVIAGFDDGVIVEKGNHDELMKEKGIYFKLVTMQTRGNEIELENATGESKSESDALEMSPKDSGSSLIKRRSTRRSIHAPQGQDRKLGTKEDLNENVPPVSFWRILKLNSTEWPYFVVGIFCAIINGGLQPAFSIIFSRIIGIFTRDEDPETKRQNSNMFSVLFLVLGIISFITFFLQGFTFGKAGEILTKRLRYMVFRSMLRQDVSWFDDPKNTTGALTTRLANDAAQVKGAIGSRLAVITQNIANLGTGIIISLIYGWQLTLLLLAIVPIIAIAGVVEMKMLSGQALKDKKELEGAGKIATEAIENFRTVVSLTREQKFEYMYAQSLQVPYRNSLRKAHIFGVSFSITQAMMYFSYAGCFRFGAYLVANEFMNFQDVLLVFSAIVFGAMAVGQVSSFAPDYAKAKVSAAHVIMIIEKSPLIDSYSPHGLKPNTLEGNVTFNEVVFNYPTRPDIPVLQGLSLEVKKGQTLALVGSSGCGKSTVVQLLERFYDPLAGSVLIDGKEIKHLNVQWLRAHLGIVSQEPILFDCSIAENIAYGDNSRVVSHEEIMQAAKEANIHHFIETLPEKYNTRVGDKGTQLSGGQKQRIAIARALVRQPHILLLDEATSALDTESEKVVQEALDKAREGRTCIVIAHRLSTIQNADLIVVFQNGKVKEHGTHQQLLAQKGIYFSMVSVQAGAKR

In the case of C[C@H]1CNC(=O)c2cnn3ccc(nc23)N[C@H](C)c2cc(F)ccc2O1 [repotrectinib], the efflux ratio at 8 h, 5 µM (endogenous canine ABCB1 [1]) is reported as 2.5, the efflux ratio at 8 h, 5 µM (endogenous canine ABCB1 [2]) is reported as 1 and the Tmax ([3]; FVB, mouse, plasma, male wild-type mice, read-out: Tmax) is reported as 30 min. For the same molecule, the “SIC (% of dose)” value [3, 4] was 8.52 ± 3.80 % of dose, the “SIC (%)-to-plasma ratio” value [3, 4] was 5.81 ± 2.09 *10-3 and the “Fold change Cliver” value [3, 4] was 0.94. The “Fold change SIC (% of dose)” value [3, 4] was 1.53, the “Fold change ratio (SIC (%)-to-plasma)” value [3, 4] was 0.66 and the “Fold change ratio (brain-to-plasma)” value [3, 4] was 1.20. For the same molecule, the “Fold change ratio (liver-to-plasma)” value [3, 4] was 0.41, the “Fold change ratio (testis-to-plasma)” value [3, 4] was 0.79 and the “Fold increase Cbrain” value [3, 4] was 2.71. The “Fold increase Ctestis” value [3, 4] was 1.70, the “Fold increase AUC0-4h” value ([3]; Table S2, male Oatp1a/1b−/− mice, 10 mg/kg) was 2.02 and 2 and the “SIC (% of dose)” value ([3]; Table S2, male wild-type mice) was 5.56 ± 1.34 % of dose. For the same molecule, the “SIC (%)-to-plasma ratio” value ([3]; Table S2, male wild-type mice) was 8.79 ± 2.41 *10-3, the “Fold change Cliver” value ([3]; Table S2, male wild-type mice) was 1.00 and the “Fold change SIC (% of dose)” value ([3]; Table S2, male wild-type mice) was 1.00. The “Fold change ratio (SIC (%)-to-plasma)” value ([3]; Table S2, male wild-type mice) was 1.00, the “Fold change ratio (brain-to-plasma)” value ([3]; Table S2, male wild-type mice) was 1.00 and the “Fold change ratio (liver-to-plasma)” value ([3]; Table S2, male wild-type mice) was 1.00. The “Fold change ratio (testis-to-plasma)” value ([3]; Table S2, male wild-type mice) was 1.00, the “Fold increase AUC0-4h” value ([3]; Table S2, male wild-type mice) was 1.00 and the “Fold increase Cbrain” value ([3]; Table S2, male wild-type mice) was 1.00. For the same molecule, the “Fold increase Ctestis” value ([3]; Table S2, male wild-type mice) was 1.00, the Tmax ([3]; male Oatp1a/1b−/− mice) was 0.5 (0.25-1) h and the “liver-to-plasma ratio, fold decrease” value ([3]; male Oatp1a/1b−/− mice vs wild-type) was 2.5 fold. It also gave a Kp at 4 h ([3]; FVB, mouse, brain, 10 mg/kg, Table S2, male Oatp1a/1b−/− mice, read-out: Brain-to-plasma ratio) of 0.18 ± 0.04, a concentration at 4 h ([3]; FVB, mouse, brain, 10 mg/kg, Table S2, male Oatp1a/1b−/− mice, read-out: Cbrain) of 258 ± 31 ng/g and a Kp at 4 h ([3]; FVB, mouse, brain, 10 mg/kg, Table S2, male wild-type mice, read-out: Brain-to-plasma ratio) of 0.15 ± 0.03. It also gave a concentration at 4 h ([3]; FVB, mouse, brain, 10 mg/kg, Table S2, male wild-type mice, read-out: Cbrain) of 95.1 ± 23.5 ng/g, a concentration at 4 h ([3]; FVB, mouse, liver, 10 mg/kg, Table S2, male Oatp1a/1b−/− mice, read-out: Cliver) of 6240 ± 1400 ng/g and a Kp at 4 h ([3]; FVB, mouse, liver, 10 mg/kg, Table S2, male Oatp1a/1b−/− mice, read-out: Liver-to-plasma ratio) of 4.3 ± 0.5. It also gave a concentration at 4 h ([3]; FVB, mouse, liver, 10 mg/kg, Table S2, male wild-type mice, read-out: Cliver) of 6630 ± 1160 ng/g, a Kp at 4 h ([3]; FVB, mouse, liver, 10 mg/kg, Table S2, male wild-type mice, read-out: Liver-to-plasma ratio) of 10.5 ± 1.9 and a Cmax [3, 5] of 5070 ± 590 ng/mL. For the same molecule, the AUC(0-t) [3, 5] was 14100 ± 1530 ng·h/mL, the Cmax [3, 6] was 3080 ± 1440 ng/mL and the AUC(0-t) [3, 6] was 6990 ± 2460 ng·h/mL. The concentration at 4 h ([3]; FVB, mouse, testis, 10 mg/kg, Table S2, male Oatp1a/1b−/− mice, read-out: Ctestis) was 264 ± 37 ng/g, the Kp at 4 h ([3]; FVB, mouse, testis, 10 mg/kg, Table S2, male Oatp1a/1b−/− mice, read-out: Testis-to-plasma ratio) was 0.19 ± 0.05 and the concentration at 4 h ([3]; FVB, mouse, testis, 10 mg/kg, Table S2, male wild-type mice, read-out: Ctestis) was 155 ± 55 ng/g. It also gave a Kp at 4 h ([3]; FVB, mouse, testis, 10 mg/kg, Table S2, male wild-type mice, read-out: Testis-to-plasma ratio) of 0.24 ± 0.07.

Source: PMC8619046, “ABCB1 and ABCG2 Control Brain Accumulation and Intestinal Disposition of the Novel ROS1/TRK/ALK Inhibitor Repotrectinib, While OATP1A/1B, ABCG2, and CYP3A Limit Its Oral Availability” (Pharmaceutics, 2021)
